In patent publication US12521375B2, “Pharmaceutical composition for treating fatty liver disease” (Shionogi & Co., Ltd., priority 2020, dated 2026):

How the values were obtained:
[1] = tested on: mice fed an ultra-high fat, choline-deficient, methionine-lowered diet; assay: Effect on liver fibrosis progression in mice fed ultra-high fat, choline-deficient, methionine-lowered diet; assay type: in vivo, C57BL/6JJcl mice; parameters: 3-hydroxybutyric acid in plasma: unit not given here; conditions: for Amount of triglyceride in liver / Sirius red-positive area rate / 3-hydroxybutyric acid in plasma / Plasma triglyceride concentration: bid; for Amount of triglyceride in liver / Sirius red-positive area rate: oral, 8 weeks; for gene expression level in the liver, Fasn / gene expression level in the liver, Srebf1: vehicle = 1.00
Experimental: Six-week-old male C57BL/6JJcl mice were fed an ultra-high fat, choline-deficient, methionine-lowered diet (60 kcal % fat content, using lard, choline-deficient, methionine-lowered (0.1%)), and at the same time, the compound of the present invention was suspended in a vehicle (0.5% methylcellulose aqueous solution) so as to have a dose of 3 to 45 mg/kg/10 mL, and orally repeatedly administered (b.i.d.) for 8 weeks. Blood was collected from the tail vein during the repeated administration period, and biochemical parameters in plasma were measured. After 8 weeks of administration, blood was collected from the abdominal vena cava under anesthesia, and then the liver was collected. Paraffin-embedded sections prepared from the collected liver were subjected to Sirius red staining. A degree of fibrosis progression in the liver was determined from a Sirius red-positive area rate and evaluated.

Crl:CD (SD) rats = assay: Influence on platelet count; assay type: in vivo; conditions: for Platelet count: oral, 4 days, SD rats; for platelet count in SD rats (in words): within a dose range used for evaluation (50 to 600 mg/kg/day)
Experimental: The compound of the present invention was suspended in a 0.5% methylcellulose solution so as to have a dose of 50 to 600 mg/kg/day, and was orally repeatedly administered for 4 days to 6-week-old male Crl:CD (SD) rats under non-fasted conditions. On day 5 from the start of administration, blood was collected from the abdominal vena cava under anesthesia, and […]. A platelet count in plasma was evaluated with an automatic hemocytometer.

[2] = tested on: Malonyl-CoA concentration in organ; assay: Test for evaluating malonyl-CoA concentration in liver and muscles; assay type: in vivo, BKS.Cg-+Lepr^db/+Lepr^db/Jcl mice; conditions: for Malonyl-CoA concentration in organ with vehicle administration group defined as 100%, Liver / Malonyl-CoA concentration in organ with vehicle administration group defined as 100%, Muscle: 2 hours after administration; for malonyl-CoA concentrations in the liver and muscles (in words): 0.3 to 6 mg/kg oral
Experimental: Eight-week-old male BKS.Cg-+Lepr^db/+Lepr^db/Jcl mice were fasted for 4 hours, then the compound of the present invention was orally administered at a dose of 0.3 to 6 mg/5 mL/kg, and 2 hours after administration, the mice were killed by exsanguination through whole blood collection from the abdominal vena cava under anesthesia. Then, the liver and muscles were removed, and a 9% homogenate was prepared in a homogenizing buffer (distilled water: 60% perchloric acid: 85% phosphoric acid=43:5:2). The malonyl-CoA concentration in the tissue was quantified by LC/MS/MS.

recombinant human ACC2 = recombinant human ACC2 (Homo sapiens (Human), UniProt O00763); assay: Measurement of inhibitory activity of human ACC2; assay type: biochemical; conditions: read-out: IC50 hACC2
recombinant human ACC2, sequence (O00763 27-2458): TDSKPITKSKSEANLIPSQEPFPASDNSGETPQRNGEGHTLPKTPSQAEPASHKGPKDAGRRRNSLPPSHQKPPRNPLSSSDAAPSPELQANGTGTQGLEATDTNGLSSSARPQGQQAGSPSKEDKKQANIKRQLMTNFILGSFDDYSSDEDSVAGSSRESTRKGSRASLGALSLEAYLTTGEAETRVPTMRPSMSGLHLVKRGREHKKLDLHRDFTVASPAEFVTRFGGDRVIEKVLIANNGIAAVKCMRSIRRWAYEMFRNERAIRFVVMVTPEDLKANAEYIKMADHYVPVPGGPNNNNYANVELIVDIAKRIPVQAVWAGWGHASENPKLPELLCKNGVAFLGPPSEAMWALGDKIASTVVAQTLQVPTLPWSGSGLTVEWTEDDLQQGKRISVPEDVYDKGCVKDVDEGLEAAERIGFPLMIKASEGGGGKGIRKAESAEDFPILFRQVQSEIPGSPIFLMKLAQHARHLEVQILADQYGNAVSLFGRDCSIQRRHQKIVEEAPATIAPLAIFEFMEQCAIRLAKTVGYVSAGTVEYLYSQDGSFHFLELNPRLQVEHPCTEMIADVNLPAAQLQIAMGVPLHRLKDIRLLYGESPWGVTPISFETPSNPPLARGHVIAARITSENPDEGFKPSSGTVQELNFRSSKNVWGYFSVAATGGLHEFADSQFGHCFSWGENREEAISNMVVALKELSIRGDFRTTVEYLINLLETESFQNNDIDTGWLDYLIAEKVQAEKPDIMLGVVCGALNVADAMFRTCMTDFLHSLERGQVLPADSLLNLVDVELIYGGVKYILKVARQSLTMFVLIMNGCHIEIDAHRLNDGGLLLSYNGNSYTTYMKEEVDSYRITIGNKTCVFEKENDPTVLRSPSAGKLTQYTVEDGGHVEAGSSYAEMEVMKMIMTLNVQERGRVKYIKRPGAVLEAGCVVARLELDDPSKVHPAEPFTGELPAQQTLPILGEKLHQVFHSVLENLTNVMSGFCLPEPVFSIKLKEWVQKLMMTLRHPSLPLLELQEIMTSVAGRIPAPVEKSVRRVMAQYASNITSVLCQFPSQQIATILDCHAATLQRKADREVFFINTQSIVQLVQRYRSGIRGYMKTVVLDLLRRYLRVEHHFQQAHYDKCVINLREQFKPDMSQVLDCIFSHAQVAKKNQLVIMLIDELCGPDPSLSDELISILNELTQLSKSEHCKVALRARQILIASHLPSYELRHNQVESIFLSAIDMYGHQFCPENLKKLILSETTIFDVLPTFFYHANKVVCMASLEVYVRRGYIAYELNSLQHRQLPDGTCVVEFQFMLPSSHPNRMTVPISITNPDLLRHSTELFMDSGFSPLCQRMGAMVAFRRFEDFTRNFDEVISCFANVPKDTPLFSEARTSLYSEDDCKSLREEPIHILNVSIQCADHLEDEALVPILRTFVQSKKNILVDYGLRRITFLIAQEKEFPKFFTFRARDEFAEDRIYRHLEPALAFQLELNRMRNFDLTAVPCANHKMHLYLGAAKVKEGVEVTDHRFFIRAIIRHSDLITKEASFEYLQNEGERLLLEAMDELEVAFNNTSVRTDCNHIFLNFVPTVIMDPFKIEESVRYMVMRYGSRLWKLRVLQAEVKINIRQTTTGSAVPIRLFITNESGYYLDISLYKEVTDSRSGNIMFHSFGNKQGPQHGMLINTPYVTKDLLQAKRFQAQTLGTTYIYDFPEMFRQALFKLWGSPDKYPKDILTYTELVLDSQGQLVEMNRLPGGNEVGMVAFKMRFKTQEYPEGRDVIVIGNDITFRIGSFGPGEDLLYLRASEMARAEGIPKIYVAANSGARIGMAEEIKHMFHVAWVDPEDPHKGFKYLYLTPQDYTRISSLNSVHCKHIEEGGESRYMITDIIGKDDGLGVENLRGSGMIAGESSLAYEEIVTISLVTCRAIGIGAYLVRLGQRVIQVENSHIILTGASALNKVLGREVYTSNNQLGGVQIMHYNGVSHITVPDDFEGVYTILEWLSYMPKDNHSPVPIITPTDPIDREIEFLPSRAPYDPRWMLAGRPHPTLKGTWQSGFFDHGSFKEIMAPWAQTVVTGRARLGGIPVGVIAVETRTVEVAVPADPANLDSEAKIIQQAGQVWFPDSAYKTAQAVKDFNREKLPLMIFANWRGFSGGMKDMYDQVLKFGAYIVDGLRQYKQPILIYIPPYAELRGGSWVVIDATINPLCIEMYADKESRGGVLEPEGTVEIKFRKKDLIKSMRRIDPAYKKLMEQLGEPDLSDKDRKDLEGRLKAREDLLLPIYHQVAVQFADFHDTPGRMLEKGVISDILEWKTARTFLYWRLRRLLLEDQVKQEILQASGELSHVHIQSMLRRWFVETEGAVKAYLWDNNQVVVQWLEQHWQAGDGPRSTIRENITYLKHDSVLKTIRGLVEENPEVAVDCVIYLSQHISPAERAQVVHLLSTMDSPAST
From the text: A cDNA encoding human ACC2 protein (27 amino acid residues to 2458 amino acid residues from the N-terminus) was cloned from a human kidney cDNA library (Clontech Laboratories, Inc.), a His-tag sequence was introduced at the 5′ end, and then inserted into pFastBac1 (Invitrogen). A recombinant baculovirus was produced in accordance with the protocol for a Bac-to-Bac baculovirus expression system (Invitrogen), and Sf-9 cells were infected therewith to express human ACC2 protein. The recovered cells were crushed, filtered through a filter, and then subjected to Ni affinity chromatography and anion exchange chromatography. Fractions containing human ACC2 protein were collected to obtain recombinant human ACC2.
The recombinant human ACC1 and the recombinant human ACC2 obtained from the above Preparation Examples were preincubated in an assay buffer (50 mM HEPES-KOH (pH 7.4), 10 mM magnesium chloride, 6 to 10 mM potassium citrate, 4 mM reduced glutathione, and 1.5 mg/ml bovine serum albumin) for 1 hour. […] After incubation, the enzymatic reaction was stopped by addition of EDTA, and then the compound was co-crystallized with an α-cyano-4-hydroxy cinnamic acid (CHCA) matrix on a MALDI target plate, and measurement was performed in a reflector negative mode using a matrix-assisted laser desorption ionization-time-of-flight mass spectrometer (MALDI-TOF MS). Deprotonated ions of the substrate acetyl-CoA (AcCoA) and the reaction product malonyl-CoA (MalCoA) were detected, and the intensity of each signal was used to calculate a conversion rate to malonyl-CoA […], i.e., intensity of [MalCoA-H]-/(intensity of [MalCoA-H]-+intensity of [AcCoA-H]-). […] The potassium citrate concentration in the assay buffer, the potassium bicarbonate concentration in the substrate solution, and the incubation time were adjusted within the above concentrations or reaction times for each lot of the enzyme to be used.

In the case of C[C@@H](CO[C@H]1CC[C@H](Oc2nc3c(F)cc(OC4CC4)cc3n2C)CC1)NC(N)=O [Compound I-12], the “Amount of triglyceride in liver” value ([1]; 3 mg/kg) is reported as 157 ± 7.3 mg/g tissue, the “Sirius red-positive area rate” value ([1]; 3 mg/kg) is reported as 3.47 ± 0.41% and the “3-hydroxybutyric acid in plasma” value ([1]; 3 mg/kg, Week 2) is reported as 128 ± 23. The Plasma triglyceride concentration ([1]; 3 mg/kg, Week 2) was 32.9 ± 1.3 mg/dL, the “3-hydroxybutyric acid in plasma” value ([1]; 3 mg/kg, Week 4) was 155 ± 31 and the Plasma triglyceride concentration ([1]; 3 mg/kg, Week 4) was 22.4 ± 2.1 mg/dL. The “3-hydroxybutyric acid in plasma” value ([1]; 3 mg/kg, Week 7) was 108 ± 31, the Plasma triglyceride concentration ([1]; 3 mg/kg, Week 7) was 27.2 ± 1.5 mg/dL and the “Amount of triglyceride in liver” value ([1]; 10 mg/kg) was 137 ± 7.2 mg/g tissue. For the same compound, the “Sirius red-positive area rate” value ([1]; 10 mg/kg) was 4.46 ± 0.69%, the “3-hydroxybutyric acid in plasma” value ([1]; 10 mg/kg, Week 2) was 136 ± 23 and the Plasma triglyceride concentration ([1]; 10 mg/kg, Week 2) was 30.4 ± 2.2 mg/dL. The “3-hydroxybutyric acid in plasma” value ([1]; 10 mg/kg, Week 4) was 292 ± 27, the Plasma triglyceride concentration ([1]; 10 mg/kg, Week 4) was 21.5 ± 1.8 mg/dL and the “3-hydroxybutyric acid in plasma” value ([1]; 10 mg/kg, Week 7) was 119 ± 34. The Plasma triglyceride concentration ([1]; 10 mg/kg, Week 7) was 22.1 ± 1.9 mg/dL, the “Amount of triglyceride in liver” value ([1]; 30 mg/kg) was 144 ± 7.5 mg/g tissue and the “Sirius red-positive area rate” value ([1]; 30 mg/kg) was 2.29 ± 0.32 %. For the same compound, the “3-hydroxybutyric acid in plasma” value ([1]; 30 mg/kg, Week 2) was 189 ± 33, the Plasma triglyceride concentration ([1]; 30 mg/kg, Week 2) was 23.1 ± 2.5 mg/dL and the “3-hydroxybutyric acid in plasma” value ([1]; 30 mg/kg, Week 4) was 292 ± 82. For the same compound, the Plasma triglyceride concentration ([1]; 30 mg/kg, Week 4) was 11.1 ± 1.1 mg/dL, the “3-hydroxybutyric acid in plasma” value ([1]; 30 mg/kg, Week 7) was 187 ± 28 and the Plasma triglyceride concentration ([1]; 30 mg/kg, Week 7) was 16.2 ± 1.6 mg/dL. The “Sirius red-positive area rate vs vehicle administration group (in words)” value ([1]; dose of 30 mg/kg) was “significantly lower than that of the vehicle administration group”, the “amount of triglyceride in the liver vs vehicle administration group (in words)” value ([1]; dose of 10 or 30 mg/kg) was “significantly lower than that of the vehicle administration group” and the “concentration of 3-hydroxybutyric acid in plasma vs vehicle administration group (in words)” value ([1]; mouse, in vivo) was “higher than that in the vehicle administration group”. The “plasma triglyceride concentration vs vehicle administration group (in words)” value ([1]; mouse, in vivo) was “lower than that in the vehicle administration group”, the Platelet count (Crl:CD (SD) rats; 100 mg/kg/day) was 987 ± 86 and the Platelet count (Crl:CD (SD) rats; 300 mg/kg/day) was 988 ± 43. The Platelet count (Crl:CD (SD) rats; 600 mg/kg/day) was 1061 ± 85, the “platelet count in SD rats (in words)” value (Crl:CD (SD) rats) was “did not affect the platelet count” and the “Malonyl-CoA concentration in organ with vehicle administration group defined as 100%, Liver” value (“Malonyl-CoA concentration … as 100%, Liver” below) ([2]; 0.67 mg/kg oral) was 92.8%. The “Malonyl-CoA concentration in organ with vehicle administration group defined as 100%, Muscle” value (from here on “Malonyl-CoA concentration … as 100%, Muscle”) ([2]; 0.67 mg/kg oral) was 70.8%, the “Malonyl-CoA concentration … as 100%, Liver” value ([2]; 2 mg/kg oral) was 91.1% and the “Malonyl-CoA concentration … as 100%, Muscle” value ([2]; 2 mg/kg oral) was 59.5%. The “Malonyl-CoA concentration … as 100%, Liver” value ([2]; 6 mg/kg oral) was 84.0%, the “Malonyl-CoA concentration … as 100%, Muscle” value ([2]; 6 mg/kg oral) was 56.4% and the “malonyl-CoA concentrations in the liver and muscles (in words)” value [2] was “reduced malonyl-CoA concentrations in the liver and muscles in a compound dose-dependent manner”. For the same compound, the IC50 (recombinant human ACC2) was 5.6 nM.
For CC(=O)N[C@@H](C)CC[C@H]1OC[C@H](Oc2nc3c(F)cc(OC4CC4)cc3n2C)CO1 [Compound I-13], the “Amount of triglyceride in liver” value ([1]; 15 mg/kg) was 179 ± 6.8 mg/g tissue, the “Sirius red-positive area rate” value ([1]; 15 mg/kg) was 1.33 ± 0.20% and the “3-hydroxybutyric acid in plasma” value ([1]; 15 mg/kg, Week 0) was 298 ± 27. For the same compound, the Plasma triglyceride concentration ([1]; 15 mg/kg, Week 0) was 61.6 ± 3.1 mg/dL, the “3-hydroxybutyric acid in plasma” value ([1]; 15 mg/kg, Week 1) was 396 ± 30 and the Plasma triglyceride concentration ([1]; 15 mg/kg, Week 1) was 23.7 ± 1.0 mg/dL. The “3-hydroxybutyric acid in plasma” value ([1]; 15 mg/kg, Week 3) was 797 ± 48, the Plasma triglyceride concentration ([1]; 15 mg/kg, Week 3) was 19.8 ± 1.2 mg/dL and the “3-hydroxybutyric acid in plasma” value ([1]; 15 mg/kg, Week 5) was 616 ± 37. The Plasma triglyceride concentration ([1]; 15 mg/kg, Week 5) was 19.0 ± 1.7 mg/dL, the “3-hydroxybutyric acid in plasma” value ([1]; 15 mg/kg, Week 7) was 501 ± 28 and the Plasma triglyceride concentration ([1]; 15 mg/kg, Week 7) was 18.8 ± 1.2 mg/dL. The “gene expression level in the liver, Fasn” value ([1]; 15 mg/kg) was 0.82 ± 0.20, the “gene expression level in the liver, Srebf1” value ([1]; 15 mg/kg) was 0.70 ± 0.19 and the “Amount of triglyceride in liver” value ([1]; 45 mg/kg) was 155 ± 7.1 mg/g tissue. For the same compound, the “Sirius red-positive area rate” value ([1]; 45 mg/kg) was 1.06 ± 0.10 %, the “3-hydroxybutyric acid in plasma” value ([1]; 45 mg/kg, Week 0) was 369 ± 28 and the Plasma triglyceride concentration ([1]; 45 mg/kg, Week 0) was 63.6 ± 3.7 mg/dL. For the same compound, the “3-hydroxybutyric acid in plasma” value ([1]; 45 mg/kg, Week 1) was 378 ± 28, the Plasma triglyceride concentration ([1]; 45 mg/kg, Week 1) was 22.4 ± 2.5 mg/dL and the “3-hydroxybutyric acid in plasma” value ([1]; 45 mg/kg, Week 3) was 688 ± 72. For the same compound, the Plasma triglyceride concentration ([1]; 45 mg/kg, Week 3) was 18.9 ± 1.4 mg/dL, the “3-hydroxybutyric acid in plasma” value ([1]; 45 mg/kg, Week 5) was 564 ± 77 and the Plasma triglyceride concentration ([1]; 45 mg/kg, Week 5) was 16.5 ± 1.7 mg/dL. The “3-hydroxybutyric acid in plasma” value ([1]; 45 mg/kg, Week 7) was 462 ± 45, the Plasma triglyceride concentration ([1]; 45 mg/kg, Week 7) was 15.1 ± 1.0 mg/dL and the “gene expression level in the liver, Fasn” value ([1]; 45 mg/kg) was 0.59 ± 0.09. The “gene expression level in the liver, Srebf1” value ([1]; 45 mg/kg) was 0.34 ± 0.05, the “Sirius red-positive area rate vs vehicle administration group (in words)” value ([1]; dose of 45 mg/kg) was “significantly lower than that of the vehicle administration group” and the “amount of triglyceride in the liver vs vehicle administration group (in words)” value ([1]; dose of 45 mg/kg) was “significantly lower than that of the vehicle administration group”. For the same compound, the “Srebf1 and Fas in the liver (in words)” value ([1]; mouse, in vivo) was “no increase in Srebf1 and Fas in the liver was observed”, the “concentration of 3-hydroxybutyric acid in plasma vs vehicle administration group (in words)” value ([1]; mouse, in vivo) was “higher than that in the vehicle administration group” and the “plasma triglyceride concentration vs vehicle administration group (in words)” value ([1]; mouse, in vivo) was “lower than that in the vehicle administration group”. For the same compound, the Platelet count (Crl:CD (SD) rats; 50 mg/kg/day) was 1079 ± 73, the Platelet count (Crl:CD (SD) rats; 100 mg/kg/day) was 1048 ± 65 and the Platelet count (Crl:CD (SD) rats; 200 mg/kg/day) was 1122 ± 87. For the same compound, the “platelet count in SD rats (in words)” value (Crl:CD (SD) rats) was “did not affect the platelet count”, the “Malonyl-CoA concentration … as 100%, Liver” value ([2]; 0.3 mg/kg oral) was 90.9% and the “Malonyl-CoA concentration … as 100%, Muscle” value ([2]; 0.3 mg/kg oral) was 72.8%. For the same compound, the “Malonyl-CoA concentration … as 100%, Liver” value ([2]; 1 mg/kg oral) was 86.5%, the “Malonyl-CoA concentration … as 100%, Muscle” value ([2]; 1 mg/kg oral) was 64.9% and the “Malonyl-CoA concentration … as 100%, Liver” value ([2]; 3 mg/kg oral) was 79.9%. The “Malonyl-CoA concentration … as 100%, Muscle” value ([2]; 3 mg/kg oral) was 58.4%, the “malonyl-CoA concentrations in the liver and muscles (in words)” value [2] was “reduced malonyl-CoA concentrations in the liver and muscles in a compound dose-dependent manner” and the IC50 (recombinant human ACC2) was 6.6 nM.
